Measured values reported in ChEMBL document CHEMBL6127050, “Simultaneous inhibition of FLT3 and HDAC by novel 6-ethylpyrazine-2-Carboxamide derivatives provides therapeutic advantages in acute myelocytic leukemia” (Eur J Med Chem, 2024).
One block for each compound: values may come before it. Activity calls are given as the source filed them. The calls are words filed in the database; no cut-off is given here.

What was measured:
[1] = target: T1, Histone deacetylase (Homo sapiens) (UniProt Q13547+O15379+Q9UBN7+Q92769+Q9UQL6+Q8WUI4+Q9BY41+Q96DB2+P56524+Q9UKV0+Q969S8); assay: Inhibition of HDAC in human HeLa nuclear extract using Boc-Lys(Ac)-AMC as substrate at 200 nM incubated for 0.5 hrs by microplate reader analysis relative to control; assay type: cell-free
Histone deacetylase = assay: Inhibition of HDAC in human HeLa nuclear extract using Boc-Lys(Ac)-AMC as substrate incubated for 0.5 hrs by microplate reader analysis; assay type: cell-based
[2] = target: T2, Receptor-type tyrosine-protein kinase FLT3 (Homo sapiens, UniProt P36888); assay: Inhibition of FLT3 (unknown origin) incubated for 40 mins in presence of ATP by kinase-glo plus luminescence assay
T2 sequence (P36888 whole entry): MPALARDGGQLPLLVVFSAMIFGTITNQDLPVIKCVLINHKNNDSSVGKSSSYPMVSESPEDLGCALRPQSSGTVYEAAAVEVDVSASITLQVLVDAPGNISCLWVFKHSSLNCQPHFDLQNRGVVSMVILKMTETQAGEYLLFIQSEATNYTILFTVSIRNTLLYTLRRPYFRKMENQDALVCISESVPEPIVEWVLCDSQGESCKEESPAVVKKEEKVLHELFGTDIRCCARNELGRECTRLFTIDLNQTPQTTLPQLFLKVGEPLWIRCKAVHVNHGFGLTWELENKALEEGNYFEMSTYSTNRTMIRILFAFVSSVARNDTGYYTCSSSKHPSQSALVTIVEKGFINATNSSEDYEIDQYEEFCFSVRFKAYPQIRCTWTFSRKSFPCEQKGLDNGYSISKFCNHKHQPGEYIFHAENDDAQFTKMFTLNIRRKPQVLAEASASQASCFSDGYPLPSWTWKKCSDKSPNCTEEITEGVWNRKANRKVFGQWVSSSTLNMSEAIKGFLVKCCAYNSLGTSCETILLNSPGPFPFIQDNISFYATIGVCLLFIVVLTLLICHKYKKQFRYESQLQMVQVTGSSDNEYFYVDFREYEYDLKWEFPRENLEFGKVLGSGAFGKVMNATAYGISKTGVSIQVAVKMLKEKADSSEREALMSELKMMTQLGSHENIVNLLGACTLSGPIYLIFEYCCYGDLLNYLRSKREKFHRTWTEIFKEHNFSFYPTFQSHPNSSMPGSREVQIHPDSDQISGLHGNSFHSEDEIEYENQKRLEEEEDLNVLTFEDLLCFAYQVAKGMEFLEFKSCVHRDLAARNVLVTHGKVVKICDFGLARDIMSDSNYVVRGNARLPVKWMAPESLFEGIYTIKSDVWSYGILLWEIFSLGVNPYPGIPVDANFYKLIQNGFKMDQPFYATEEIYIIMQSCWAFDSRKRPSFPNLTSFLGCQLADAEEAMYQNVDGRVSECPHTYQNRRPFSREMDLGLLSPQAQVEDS

MOLM-13 [3] = assay: Antiproliferative activity against human MOLM-13 cells incubated for 48 hrs; conditions: MOLM-13, 48 h
KG-1 = assay: Antiproliferative activity against human KG-1 cells incubated for 48 hrs; conditions: KG-1, 48 h
THP-1 = assay: Antiproliferative activity against human THP-1 cells incubated for 48 hrs; conditions: THP-1, 48 h
K562 = assay: Antiproliferative activity against human K562 cells incubated for 48 hrs; conditions: K562, 48 h
[4] = target: T1, Histone deacetylase (Homo sapiens); assay: Inhibition of HDAC in human HeLa nuclear extract using Boc-Lys(Ac)-AMC as substrate at 10000 nM incubated for 0.5 hrs by microplate reader analysis relative to control; assay type: cell-free
[5] = Toxicity in NOD/SCID mouse xenografted with human MOLM-13 cells assessed as increase in survival rate at 15 mg/kg, IG administered 5 days per week in presence of vorinostat by Kaplan Mayer survival analysis; assay type: organism-based; conditions: in vivo, po, 120 h, time 5 day
[6] = Cytotoxicity against HEK293T cells incubated for 48 hrs; assay type: toxicity, cell-based, HEK-293T; conditions: human
MOLM-13 [7] = assay: Induction of apoptosis in human MOLM-13 cells assessed as viable cells at 0.1 uM incubated for 48 hrs by Annexin V-FITC staining based flow cytometry analysis (reference value: 94.5 %); assay type: functional; conditions: Homo sapiens, MOLM-13, read-out: Activity
MOLM-13 [8] = assay: Induction of apoptosis in human MOLM-13 cells assessed as early apoptotic cells at 0.1 uM incubated for 48 hrs by Annexin V-FITC staining based flow cytometry analysis (reference value: 4.07 %); assay type: functional
MOLM-13 [9] = assay: Induction of apoptosis in human MOLM-13 cells assessed as late apoptotic cells at 0.1 uM incubated for 48 hrs by Annexin V-FITC staining based flow cytometry analysis (reference value: 1.40 %); assay type: functional
MOLM-13 [10] = assay: Induction of apoptosis in human MOLM-13 cells assessed as necrotic at 0.1 uM incubated for 48 hrs by Annexin V-FITC staining based flow cytometry analysis (reference value: 0.013 %); assay type: functional
MOLM-13 [11] = assay: Induction of apoptosis in human MOLM-13 cells assessed as viable cells at 0.1 uM incubated for 48 hrs in presence of vorinostat by Annexin V-FITC staining based flow cytometry analysis (reference value: 94.5 %); assay type: functional; conditions: read-out: Activity
MOLM-13 [12] = assay: Induction of apoptosis in human MOLM-13 cells assessed as early apoptotic cells at 0.1 uM incubated for 48 hrs in presence of vorinostat by Annexin V-FITC staining based flow cytometry analysis (reference value: 4.07 %); assay type: functional
MOLM-13 [13] = assay: Induction of apoptosis in human MOLM-13 cells assessed as late apoptotic cells at 0.1 uM incubated for 48 hrs in presence of vorinostat by Annexin V-FITC staining based flow cytometry analysis (reference value: 1.40 %); assay type: functional
MOLM-13 [14] = assay: Induction of apoptosis in human MOLM-13 cells assessed as necrotic cells at 0.1 uM incubated for 48 hrs in presence of vorinostat by Annexin V-FITC staining based flow cytometry analysis (reference value: 0.013 %); assay type: functional
MOLM-13 [15] = assay: Induction of cell cycle arrest in human MOLM-13 cells assessed as accumulation of cells at G0/G1 phase at 0.05 uM measured for 48 hrs by PI/RNase staining based flow cytometric analysis (reference value: 46.24 %); assay type: functional
MOLM-13 [16] = assay: Induction of cell cycle arrest in human MOLM-13 cells assessed as accumulation of cells at G2M phase at 0.05 uM measured for 48 hrs by PI/RNase staining based flow cytometric analysis (reference value: 10.81%); assay type: functional
MOLM-13 [17] = assay: Induction of cell cycle arrest in human MOLM-13 cells assessed as accumulation of cells at S-phase at 0.05 uM measured for 48 hrs by PI/RNase staining based flow cytometric analysis (reference value: 42.95%); assay type: functional
MOLM-13 [18] = assay: Induction of cell cycle arrest in human MOLM-13 cells assessed as accumulation of cells at G0/G1 phase at 0.05 uM measured for 48 hrs in presence of vorinostat by PI/RNase staining based flow cytometric analysis (reference value: 46.24 %); assay type: functional
MOLM-13 [19] = assay: Induction of cell cycle arrest in human MOLM-13 cells assessed as accumulation of cells at G2M phase at 0.05 uM measured for 48 hrs in presence of vorinostat by PI/RNase staining based flow cytometric analysis (reference value: 10.81%); assay type: functional
MOLM-13 [20] = assay: Induction of cell cycle arrest in human MOLM-13 cells assessed as accumulation of cells at S-phase at 0.05 uM measured for 48 hrs in presence of vorinostat by PI/RNase staining based flow cytometric analysis (reference value: 42.95%); assay type: functional
MOLM-13 [21] = assay: Antitumor activity against human MOLM-13 cells xenografted BALB/c mouse assessed as reduction in tumor volume at 10 mg/kg, IG qd administered 5 days a week and measured on day 9 in presence of vorinostat; assay type: functional, organism-based; conditions: time 9.0 day
MOLM-13 [22] = assay: Antitumor activity against human MOLM-13 cells xenografted BALB/c mouse assessed as tumor growth inhibition at 10 mg/kg, IG qd administered 5 days a week and measured on day 9 in presence of vorinostat; assay type: functional; conditions: MOLM-13, po, 216 h, time 9 day, read-out: TGI
[23] = Toxicity in BALB/c mouse xenografted with human MOLM-13 cells assessed as body weight loss at 10 mg/kg, IG qd administered 5 days a week and measured on day 9 in presence of vorinostat; assay type: organism-based; conditions: in vivo, po, 216 h, time 9 day
[24] = Toxicity in BALB/c mouse xenografted with human MOLM-13 cells assessed as lung damage at 10 mg/kg, IG qd administered 5 days a week and measured on day 9 in presence of vorinostat by H and E staining based analysis; assay type: organism-based; conditions: in vivo, po, 216 h, time 9 day

Structure (SMILES): CCc1nc(C(N)=O)c(Nc2ccc(N3CCC(N4CCN(C(=O)CCCCC(=O)NO)CC4)CC3)c(OC)c2)nc1NC1CCOCC1
inhibition [1]: 10%

Structure (SMILES): CCc1nc(C(N)=O)c(Nc2ccc(N3CCN(CCCCCC(=O)NO)CC3)c(OC)c2)nc1NC1CCOCC1
inhibition [1]: 25%

Structure (SMILES): CCc1nc(C(N)=O)c(Nc2ccc(N3CCN(CCC(=O)NO)CC3)c(OC)c2)nc1NC1CCOCC1
inhibition [1]: 10%

Structure (SMILES): CCc1nc(C(N)=O)c(Nc2ccc(N3CCN(CCCCC(=O)NO)CC3)c(OC)c2)nc1NC1CCOCC1
inhibition [1]: 1%

Structure (SMILES): CCc1nc(C(N)=O)c(Nc2ccc(N3CCC(N4CCN(C(=O)CCCC(=O)NO)CC4)CC3)c(OC)c2)nc1NC1CCOCC1
inhibition [1]: 27%

Structure (SMILES): CCc1nc(C(N)=O)c(Nc2ccc(N3CCN(CCCCCCC(=O)NO)CC3)c(OC)c2)nc1NC1CCOCC1
IC50 (Histone deacetylase): 330 nM | IC50 [2]: 0.6 nM | IC50 (MOLM-13 [3]): 10 nM | IC50 (KG-1): 1440 nM | IC50 (THP-1): 1550 nM | IC50 (K562): 1060 nM

Structure (SMILES): CCc1nc(C(N)=O)c(Nc2ccc(N3CCC(N4CCN(c5ncc(C(=O)NO)cn5)CC4)CC3)c(OC)c2)nc1NC1CCOCC1
inhibition [1]: 18.7%

Structure (SMILES): CCc1nc(C(N)=O)c(Nc2ccc(N3CCN(C(=O)CCCCCC(=O)NO)CC3)c(OC)c2)nc1NC1CCOCC1
IC50 (Histone deacetylase): 204.3 nM

Structure (SMILES): CCc1nc(C(N)=O)c(Nc2ccc(N3CCC(N4CCN(c5ncc(C(=O)Nc6ccccc6N)cn5)CC4)CC3)c(OC)c2)nc1NC1CCOCC1
inhibition [4]: 4.3%

Structure (SMILES): CCc1nc(C(N)=O)c(Nc2ccc(N3CCC(N4CCN(Cc5ccc(/C=C/C(=O)NO)cc5)CC4)CC3)c(OC)c2)nc1NC1CCOCC1
inhibition [1]: 28%

Structure (SMILES): CCc1nc(C(N)=O)c(Nc2ccc(N3CCC(N4CCN(Cc5ccc(C(=O)NCc6ccc(/C=C/C(=O)NO)cc6)cc5)CC4)CC3)c(OC)c2)nc1NC1CCOCC1
IC50 (Histone deacetylase): 63 nM

Structure (SMILES): CCc1nc(C(N)=O)c(Nc2ccc(N3CCC(N4CCN(CCCCCCCC(=O)NO)CC4)CC3)c(OC)c2)nc1NC1CCOCC1
inhibition [1]: 28%

Structure (SMILES): CCc1nc(C(N)=O)c(Nc2ccc(N3CCN(Cc4ccc(/C=C/C(=O)NO)cc4)CC3)c(OC)c2)nc1NC1CCOCC1
IC50 (Histone deacetylase): 93.7 nM

Structure (SMILES): CCc1nc(C(N)=O)c(Nc2ccc(N3CCC(N4CCN(C)CC4)CC3)c(OC)c2)nc1NC1CCOCC1 [GILTERITINIB]
Activity [5]: Non-Toxic | IC50 (MOLM-13 [3]): 12 nM | IC50 (KG-1): 620 nM | IC50 (THP-1): 850 nM | IC50 (K562): 990 nM | IC50 at 48 h [6]: 970 nM | viability at 0.1 µM (MOLM-13 [7]): 53.5% | Activity (MOLM-13 [8]): 33.5% | Activity (MOLM-13 [9]): 12.7% | Activity (MOLM-13 [10]): 0.36% | viability at 0.1 µM (MOLM-13 [11]): 46.8% | Activity (MOLM-13 [12]): 35% | Activity (MOLM-13 [13]): 17.4% | Activity (MOLM-13 [14]): 0.88% | Activity (MOLM-13 [15]): 50% | Activity (MOLM-13 [16]): 5.53% | Activity (MOLM-13 [17]): 44.47% | Activity (MOLM-13 [18]): 64.51% | Activity (MOLM-13 [19]): 7.24% | Activity (MOLM-13 [20]): 28.26% | Activity (MOLM-13 [21]): Active | inhibition in vivo at 10 mg/kg (MOLM-13 [22]): 55.3% | Activity [23]: Non-Toxic | Activity [24]: Non-Toxic

Continued, values first:

inhibition [1]: 14%
Structure (SMILES): CCc1nc(C(N)=O)c(Nc2ccc(N3CCC(N4CCN(C(=O)CCCCCC(=O)NO)CC4)CC3)c(OC)c2)nc1NC1CCOCC1

inhibition [4]: 27.5%
Structure (SMILES): CCc1nc(C(N)=O)c(Nc2ccc(N3CCC(N4CCN(Cc5ccc(C(=O)Nc6ccccc6N)cc5)CC4)CC3)c(OC)c2)nc1NC1CCOCC1

inhibition [1]: 3%
Structure (SMILES): CCc1nc(C(N)=O)c(Nc2ccc(N3CCN(CCCC(=O)NO)CC3)c(OC)c2)nc1NC1CCOCC1

inhibition [1]: 18%
Structure (SMILES): CCc1nc(C(N)=O)c(Nc2ccc(N3CCC(N4CCN(Cc5ccc(C(=O)NO)cc5)CC4)CC3)c(OC)c2)nc1NC1CCOCC1

IC50 (Histone deacetylase): 147.3 nM
Structure (SMILES): CCc1nc(C(N)=O)c(Nc2ccc(N3CCN(C(=O)CCCCCCC(=O)NO)CC3)c(OC)c2)nc1NC1CCOCC1

inhibition [1]: 27%
Structure (SMILES): CCc1nc(C(N)=O)c(Nc2ccc(N3CCC(N4CCN(C(=O)CCCCCCC(=O)NO)CC4)CC3)c(OC)c2)nc1NC1CCOCC1

inhibition [1]: 36%
Structure (SMILES): CCc1nc(C(N)=O)c(Nc2ccc(N3CCC(N4CCN(CCCCCC(=O)NO)CC4)CC3)c(OC)c2)nc1NC1CCOCC1
